For nine compounds, IC50 results are on record in US20240383875A1, “Benzimidazole Pyridine Derivatives” (Hoffmann-La Roche Inc., priority 2022, published 2024).

Type in all cases: biochemical
For one experiment, the target named is SIK3 (Homo sapiens, UniProt Q9Y2K2). The experiment can be described thus: Enzymatic activity assay SIK3, RapidFire mass spectrometry (phosphorylation of CHK-peptide). To be noted: RapidFire MS, inhibition of SIK3; read-out: SIK3 RF IC50. The essentials:
(§1)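 Human SIK1/2/3, 5/0.5/1.5 nM; 12.5 mM HEPES pH 7.0, 10 mM Mg acetate, 0.005% BSA. 30 min cpd pre-inc, + CHK-peptide (10 μM soln) + ATP (100 μM soln), 45 min RT. Formic acid stop; RF-MS phospho ratio; IC50.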

The target in a further experiment is SIK1 (Homo sapiens, UniProt P57059). The experiment can be described thus: Enzymatic activity assay SIK1, RapidFire mass spectrometry (phosphorylation of CHK-peptide). To be noted: RapidFire MS, inhibition of SIK1; read-out: SIK1 RF IC50. The essentials:
as §1

The next experiment addresses SIK2 (Homo sapiens, UniProt Q9H0K1). The experiment is described as follows: Enzymatic activity assay SIK2, RapidFire mass spectrometry (phosphorylation of CHK-peptide). To be noted: RapidFire MS, inhibition of SIK2; read-out: SIK2 RF IC50. The essentials:
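Read-out is the summed phospho-species fraction of CHK-peptide by RapidFire mass spectrometry, normalized between DMSO and 1 μM YKL-05-099. The reaction used 0.5 nM SIK2, 100 μM ATP and 10 μM peptide solutions in HEPES pH 7.0/10 mM magnesium acetate for 45 min at ambient temperature.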

SIK1, sequence (P57059 whole entry): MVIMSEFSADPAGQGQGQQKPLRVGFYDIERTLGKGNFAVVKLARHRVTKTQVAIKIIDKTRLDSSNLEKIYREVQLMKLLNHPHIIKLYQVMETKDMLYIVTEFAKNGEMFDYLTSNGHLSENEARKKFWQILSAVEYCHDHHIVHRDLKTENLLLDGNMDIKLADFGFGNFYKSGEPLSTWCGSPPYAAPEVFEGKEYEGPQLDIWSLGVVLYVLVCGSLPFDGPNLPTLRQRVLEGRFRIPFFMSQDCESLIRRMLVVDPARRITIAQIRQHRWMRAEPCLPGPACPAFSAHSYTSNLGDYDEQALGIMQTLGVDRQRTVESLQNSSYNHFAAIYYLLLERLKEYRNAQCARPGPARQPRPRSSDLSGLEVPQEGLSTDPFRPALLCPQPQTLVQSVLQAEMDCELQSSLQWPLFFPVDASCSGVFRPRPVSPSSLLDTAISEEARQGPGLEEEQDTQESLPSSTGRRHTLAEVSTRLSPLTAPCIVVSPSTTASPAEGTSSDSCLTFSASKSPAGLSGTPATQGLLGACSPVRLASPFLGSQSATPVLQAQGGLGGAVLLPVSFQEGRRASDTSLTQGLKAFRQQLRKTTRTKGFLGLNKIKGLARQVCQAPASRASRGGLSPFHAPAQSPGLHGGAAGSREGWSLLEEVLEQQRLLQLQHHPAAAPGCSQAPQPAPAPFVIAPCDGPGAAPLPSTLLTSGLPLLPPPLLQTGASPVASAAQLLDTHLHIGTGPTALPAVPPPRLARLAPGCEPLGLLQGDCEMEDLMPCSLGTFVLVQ
SIK3, sequence (Q9Y2K2 whole entry): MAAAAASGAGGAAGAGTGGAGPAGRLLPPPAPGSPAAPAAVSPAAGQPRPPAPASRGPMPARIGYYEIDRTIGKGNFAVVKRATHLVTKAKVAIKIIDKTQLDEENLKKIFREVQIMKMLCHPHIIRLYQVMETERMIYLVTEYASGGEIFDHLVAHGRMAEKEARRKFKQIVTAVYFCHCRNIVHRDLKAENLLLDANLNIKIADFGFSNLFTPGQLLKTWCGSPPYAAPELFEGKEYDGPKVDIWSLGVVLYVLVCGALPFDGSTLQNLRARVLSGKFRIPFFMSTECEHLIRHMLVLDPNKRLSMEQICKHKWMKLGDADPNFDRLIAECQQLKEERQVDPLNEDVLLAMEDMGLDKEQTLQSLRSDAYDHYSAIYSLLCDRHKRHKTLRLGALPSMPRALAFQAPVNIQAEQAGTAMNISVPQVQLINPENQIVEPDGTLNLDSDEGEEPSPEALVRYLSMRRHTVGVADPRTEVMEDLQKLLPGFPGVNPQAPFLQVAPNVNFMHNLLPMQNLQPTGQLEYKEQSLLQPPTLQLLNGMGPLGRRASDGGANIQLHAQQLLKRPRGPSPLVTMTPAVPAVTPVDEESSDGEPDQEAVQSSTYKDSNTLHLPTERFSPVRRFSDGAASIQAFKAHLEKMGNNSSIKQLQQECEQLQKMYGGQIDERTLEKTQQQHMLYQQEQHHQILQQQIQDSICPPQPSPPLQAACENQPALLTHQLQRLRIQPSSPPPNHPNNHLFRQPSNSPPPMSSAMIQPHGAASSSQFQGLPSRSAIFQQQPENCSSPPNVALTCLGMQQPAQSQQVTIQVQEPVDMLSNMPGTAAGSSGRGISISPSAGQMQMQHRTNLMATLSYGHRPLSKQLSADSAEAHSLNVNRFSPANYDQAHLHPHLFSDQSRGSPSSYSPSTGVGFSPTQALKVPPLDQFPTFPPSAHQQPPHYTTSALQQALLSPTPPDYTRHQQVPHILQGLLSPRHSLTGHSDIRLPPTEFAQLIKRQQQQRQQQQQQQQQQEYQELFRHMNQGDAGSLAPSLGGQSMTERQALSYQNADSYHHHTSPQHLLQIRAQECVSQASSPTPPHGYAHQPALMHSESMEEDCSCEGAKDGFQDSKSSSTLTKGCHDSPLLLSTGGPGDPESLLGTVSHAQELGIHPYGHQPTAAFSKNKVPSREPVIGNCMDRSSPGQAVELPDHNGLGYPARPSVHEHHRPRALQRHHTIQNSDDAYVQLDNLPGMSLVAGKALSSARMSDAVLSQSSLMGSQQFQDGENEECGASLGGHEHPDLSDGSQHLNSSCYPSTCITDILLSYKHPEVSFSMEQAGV
SIK2, sequence (Q9H0K1 whole entry): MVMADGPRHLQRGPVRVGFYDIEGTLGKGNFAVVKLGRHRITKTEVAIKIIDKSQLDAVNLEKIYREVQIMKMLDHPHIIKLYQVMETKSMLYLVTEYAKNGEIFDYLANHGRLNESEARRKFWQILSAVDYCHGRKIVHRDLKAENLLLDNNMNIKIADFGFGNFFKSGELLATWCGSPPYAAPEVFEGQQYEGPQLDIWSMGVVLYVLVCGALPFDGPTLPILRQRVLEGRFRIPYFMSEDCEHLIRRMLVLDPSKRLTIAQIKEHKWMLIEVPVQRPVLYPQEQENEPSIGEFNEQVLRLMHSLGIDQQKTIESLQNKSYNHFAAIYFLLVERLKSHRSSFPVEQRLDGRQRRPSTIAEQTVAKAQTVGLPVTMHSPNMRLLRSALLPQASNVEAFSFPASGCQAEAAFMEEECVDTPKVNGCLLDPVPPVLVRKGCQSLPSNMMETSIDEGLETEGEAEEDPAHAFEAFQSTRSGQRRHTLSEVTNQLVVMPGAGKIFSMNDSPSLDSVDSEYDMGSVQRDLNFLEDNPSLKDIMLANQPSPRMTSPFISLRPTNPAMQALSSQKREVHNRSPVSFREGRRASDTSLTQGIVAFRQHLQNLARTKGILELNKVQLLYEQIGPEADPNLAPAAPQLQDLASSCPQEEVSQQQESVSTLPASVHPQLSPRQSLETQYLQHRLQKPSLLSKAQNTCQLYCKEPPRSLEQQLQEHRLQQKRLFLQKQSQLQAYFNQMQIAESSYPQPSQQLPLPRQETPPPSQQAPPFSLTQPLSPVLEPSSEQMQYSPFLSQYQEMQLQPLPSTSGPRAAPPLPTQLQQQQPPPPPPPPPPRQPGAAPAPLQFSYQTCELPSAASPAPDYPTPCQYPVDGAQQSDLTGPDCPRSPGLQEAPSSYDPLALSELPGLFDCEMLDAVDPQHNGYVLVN

As a reminder, the IC50 is the concentration at which inhibition is half-maximal. Regarding `Cc1ccc(Nc2ccc3c(c2)ncn3-c2nc(-n3ccc(C#N)n3)c(C(C)O)cc2Cl)nn1` (stereo not drawn) [Example 239, 1-[5-Chloro-3-(1-hydroxyethyl)-6-[5-[(6-methylpyridazin-3-yl)amino]benzimidazol-1-yl]-2-pyridyl]pyrazole-3-carbonitrile], the IC50 on SIK3 was 329 nM; at SIK1, above 30000 nM; on SIK2, 1390 nM.

For the compound `Cc1ccc(Nc2ccc3c(c2)ncn3-c2ccc(C(C)O)c(-c3cnn(CC(F)(F)F)c3C)n2)nn1` (stereo not drawn) [Example 240, 1-[6-[5-[(6-Methylpyridazin-3-yl)amino]benzimidazol-1-yl]-2-[5-methyl-1-(2,2,2-trifluoroethyl)pyrazol-4-yl]-3-pyridyl]ethanol; formic acid], the IC50 at SIK3 worked out at 0.2 nM; at SIK1, 43 nM; at SIK2, 0.3 nM.

With `COc1cc(Cl)nnc1Nc1ccc2c(c1)ncn2-c1ccc(C(C)O)c(-n2nc(C#N)cc2C)n1` (stereo not drawn) [Example 241, 1-[6-[5-[(6-Chloro-4-methoxy-pyridazin-3-yl)amino]benzimidazol-1-yl]-3-(1-hydroxyethyl)-2-pyridyl]-5-methyl-pyrazole-3-carbonitrile], the figures for the half-maximal inhibitory concentration (IC50) on SIK3, on SIK1 and at SIK2 were 0.9 nM, 173 nM and 1.8 nM, respectively.

Regarding `Cc1ccc(Nc2ccc3c(c2)ncn3-c2ccc(C(C)O)c(N3C[C@H](C#N)C[C@@H]3C)n2)nn1` (stereo partly drawn) [Example 242, (3R,5S)-1-[3-(1-hydroxyethyl)-6-[5-[(6-methylpyridazin-3-yl)amino]benzimidazol-1-yl]-2-pyridyl]-5-methyl-pyrrolidine-3-carbonitrile; formic acid], the half-maximal inhibitory concentration (IC50) on SIK3 stood at 1.8 nM; at SIK1, 843 nM; on SIK2, 9.5 nM.

For the compound `Cc1ccc(Nc2ccc3c(c2)ncn3-c2nc(-n3nc(C#N)cc3C)c(C(C)O)cc2Cl)nn1` (stereo not drawn) [Example 245, 1-[5-Chloro-3-(1-hydroxyethyl)-6-[5-[(6-methylpyridazin-3-yl)amino]benzimidazol-1-yl]-2-pyridyl]-5-methyl-pyrazole-3-carbonitrile; formic acid], the figures for the IC50 on SIK3, at SIK1 and on SIK2 were 67.4 nM, 6410 nM and 72.5 nM, respectively.

Regarding `Cc1ccc(Nc2ccc3c(c2)ncn3-c2ccc(C(C)O)c(-c3cc(C#N)n(C)n3)n2)nn1` (stereo not drawn) [Example 246, 5-[3-(1-Hydroxyethyl)-6-[5-[(6-methylpyridazin-3-yl)amino]benzimidazol-1-yl]-2-pyridyl]-2-methyl-pyrazole-3-carbonitrile; formic acid], the half-inhibitory concentration (IC50) stood at 5.4 nM at SIK3, 7780 nM at SIK1 and 29.5 nM at SIK2.

Take `Cc1ccc(Nc2ccc3ncn(-c4ccc([C@@H](C)O)c(-n5nc(C#N)cc5C)n4)c3c2)nn1` [Example 247, 1-[3-[(1R)-1-hydroxyethyl]-6-[6-[(6-methylpyridazin-3-yl)amino]benzimidazol-1-yl]-2-pyridyl]-5-methyl-pyrazole-3-carbonitrile]: the results for the IC50 on SIK3, at SIK1 and at SIK2 were 46.1 nM, 1440 nM and 174 nM, respectively.

Consider `Cc1ccc(Nc2ccc3c(c2)ncn3-c2ccc(C(C)O)c(-n3nc(C(F)F)cc3C(F)F)n2)nn1` (stereo not drawn) [Example 248, 1-[2-[3,5-Bis(difluoromethyl)pyrazol-1-yl]-6-[5-[(6-methylpyridazin-3-yl)amino]benzimidazol-1-yl]-3-pyridyl]ethanol], for which the 50% inhibitory concentration (IC50) turned out to be 0.7 nM on SIK3, 242 nM on SIK1 and 1.8 nM at SIK2.

As for `Cc1cc(C#N)nn1-c1nc(-n2cnc3cc(Nc4ccc(C(F)(F)F)nn4)ccc32)ccc1C(C)O` (stereo not drawn) [Example 249, 1-[3-(1-Hydroxyethyl)-6-[5-[[6-(trifluoromethyl)pyridazin-3-yl]amino]benzimidazol-1-yl]-2-pyridyl]-5-methyl-pyrazole-3-carbonitrile], the IC50 on SIK3 amounted to 0.8 nM; on SIK1, 54 nM; on SIK2 it was 2.2 nM.
